This is an account of results in US9469642B2, “Purinone compounds as kinase inhibitors” (Pharmacyclics LLC, priority 2012, dated 2016).

A value given as a limit tells only on which side of the number the result lay.

Common to all, as to type: biochemical
One assay addresses EGFR (Homo sapiens, UniProt P00533). Nature of the assay: Kinase panel inhibition, EGFR (one of the methods of Example 76a, 76b, 76c). The essentials: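 Kinase activity was measured by TR-FRET in 50 μL reactions in 96-well plates. Enzyme, inhibitor, ATP at its Km and a biotinylated peptide substrate were incubated for one hour at pH 7.4 in buffer containing 20 mM Tris, 50 mM NaCl, MgCl2, MnCl2, 1 mM DTT, 0.1 mM EDTA, 0.01% bovine serum albumin, 0.005% Tween-20 and 10% DMSO. Reactions were stopped with EDTA in Lance buffer. Streptavidin-APC and Eu-labeled p-Tyr100 antibody were added for one hour. The 665/615 nm emission ratio gave activity. IC50 was derived from Ki(app) fitted with BatchKi.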

For another assay, the target named is LCK (Homo sapiens, UniProt P06239). Nature of the assay: Kinase panel inhibition, LCK (one of the methods of Example 76a, 76b, 76c). In short, it runs like this:
(§1)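 BTK (0.5 nM) and LCK (6 nM) by TR-FRET, ATP at Km, biotinylated peptide, pH 7.4, 1 h; Ki(app) converted to IC50. Alternatively, full-length His6-BTK (1 nM) by mobility shift, 16 μM ATP (Km), 1 μM FAM peptide, pH 7.5, 1 h; IC50 from 12-point 4-parameter fit. Radiometric filter-binding option also used.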

For the next assay, the target named is T1, BTK (Homo sapiens, UniProt Q06187).
T1 construct: purified from insect cells as a full-length construct containing a N-terminal 6×-His tag; His6 (N); host or cells: insect cells (baculovirus Sf21)
The assay can be described thus: Btk in vitro inhibitory activity (kinase assay by one of Methods A, B or C). The essentials:
as §1

Sequence of LCK (P06239 whole entry, species assumed): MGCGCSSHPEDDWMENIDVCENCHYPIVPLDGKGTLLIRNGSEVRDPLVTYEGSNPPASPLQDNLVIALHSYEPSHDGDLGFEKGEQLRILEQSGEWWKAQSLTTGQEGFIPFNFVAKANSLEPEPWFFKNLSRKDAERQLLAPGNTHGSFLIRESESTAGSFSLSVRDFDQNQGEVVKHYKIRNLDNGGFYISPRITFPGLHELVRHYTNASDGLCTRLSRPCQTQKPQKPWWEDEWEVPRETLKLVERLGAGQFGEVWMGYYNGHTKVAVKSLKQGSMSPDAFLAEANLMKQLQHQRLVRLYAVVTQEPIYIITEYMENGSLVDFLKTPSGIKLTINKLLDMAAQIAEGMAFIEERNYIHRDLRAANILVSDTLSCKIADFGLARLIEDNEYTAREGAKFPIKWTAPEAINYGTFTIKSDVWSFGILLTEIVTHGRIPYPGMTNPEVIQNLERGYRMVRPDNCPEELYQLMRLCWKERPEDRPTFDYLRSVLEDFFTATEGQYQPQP
Sequence of EGFR (P00533 25-1210, species assumed): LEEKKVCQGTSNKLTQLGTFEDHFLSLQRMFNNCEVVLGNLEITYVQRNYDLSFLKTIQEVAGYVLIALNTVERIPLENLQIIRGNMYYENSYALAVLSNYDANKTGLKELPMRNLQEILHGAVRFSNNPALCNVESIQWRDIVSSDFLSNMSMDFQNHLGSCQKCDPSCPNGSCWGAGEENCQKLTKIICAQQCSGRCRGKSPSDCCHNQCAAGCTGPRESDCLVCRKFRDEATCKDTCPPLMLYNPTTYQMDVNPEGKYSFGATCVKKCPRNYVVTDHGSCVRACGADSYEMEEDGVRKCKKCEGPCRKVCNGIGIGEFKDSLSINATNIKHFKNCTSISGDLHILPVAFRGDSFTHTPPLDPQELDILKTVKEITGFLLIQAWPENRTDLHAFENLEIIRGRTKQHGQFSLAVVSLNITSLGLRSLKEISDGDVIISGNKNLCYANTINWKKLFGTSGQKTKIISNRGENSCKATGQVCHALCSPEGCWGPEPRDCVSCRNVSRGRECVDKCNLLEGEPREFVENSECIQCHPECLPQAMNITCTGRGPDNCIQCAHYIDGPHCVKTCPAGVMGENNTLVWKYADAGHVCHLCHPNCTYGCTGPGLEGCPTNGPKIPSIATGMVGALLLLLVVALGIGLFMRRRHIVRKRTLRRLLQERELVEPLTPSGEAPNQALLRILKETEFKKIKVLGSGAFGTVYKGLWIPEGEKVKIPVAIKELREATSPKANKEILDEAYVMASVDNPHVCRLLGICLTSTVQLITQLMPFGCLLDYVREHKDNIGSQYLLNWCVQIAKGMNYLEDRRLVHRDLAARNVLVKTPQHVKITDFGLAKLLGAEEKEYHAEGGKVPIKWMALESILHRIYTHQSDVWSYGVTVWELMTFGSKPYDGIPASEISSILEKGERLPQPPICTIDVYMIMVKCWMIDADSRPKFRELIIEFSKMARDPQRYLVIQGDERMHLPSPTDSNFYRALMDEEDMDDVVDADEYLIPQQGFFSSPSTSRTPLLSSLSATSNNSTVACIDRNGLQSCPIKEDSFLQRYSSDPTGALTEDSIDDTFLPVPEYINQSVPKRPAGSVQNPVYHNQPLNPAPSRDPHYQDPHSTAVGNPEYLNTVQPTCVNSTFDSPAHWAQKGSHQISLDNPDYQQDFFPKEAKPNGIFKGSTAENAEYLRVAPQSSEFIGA
T1 sequence (Q06187 whole entry): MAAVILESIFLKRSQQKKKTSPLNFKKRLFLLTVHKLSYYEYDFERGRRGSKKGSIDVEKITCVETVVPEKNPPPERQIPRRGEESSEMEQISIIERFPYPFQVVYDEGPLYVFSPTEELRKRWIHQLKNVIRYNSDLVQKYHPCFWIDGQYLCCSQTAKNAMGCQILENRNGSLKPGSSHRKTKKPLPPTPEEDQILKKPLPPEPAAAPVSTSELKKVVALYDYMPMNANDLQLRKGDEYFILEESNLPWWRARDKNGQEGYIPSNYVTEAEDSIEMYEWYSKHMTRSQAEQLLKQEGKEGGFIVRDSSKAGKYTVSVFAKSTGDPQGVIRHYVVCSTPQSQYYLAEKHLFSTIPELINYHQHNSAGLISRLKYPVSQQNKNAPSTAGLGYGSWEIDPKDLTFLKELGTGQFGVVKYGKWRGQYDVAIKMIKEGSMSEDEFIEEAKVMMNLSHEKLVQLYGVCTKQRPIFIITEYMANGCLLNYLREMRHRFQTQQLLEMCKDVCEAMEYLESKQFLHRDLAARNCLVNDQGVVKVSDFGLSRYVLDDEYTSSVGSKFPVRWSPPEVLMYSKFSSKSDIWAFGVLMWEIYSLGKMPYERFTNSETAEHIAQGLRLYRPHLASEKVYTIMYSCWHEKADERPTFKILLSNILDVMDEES

Consider `Cc1ccc(-n2c(=O)n(-c3ccc(Oc4ccccc4)cc3)c3c(N)ncnc32)cc1N(C)C(=O)/C=C/CN(C)C1CC1` [Compound 201, (E)-N-(5-(6-amino-8-oxo-7-(4-phenoxyphenyl)-7H-purin-9(8H)-yl)-2-methylphenyl)-4-(cyclopropyl(methyl)amino)-N-methylbut-2-enamide], for which the IC50 on EGFR was 1000 to 10000 nM; at LCK, 1000 to 10000 nM; at BTK, less than 100 nM.
On to `CNC/C=C/C(=O)Nc1cccc(-n2c(=O)n(-c3ccc(Oc4ccccc4)cc3)c3c(N)ncnc32)c1` [Compound 329, (E)-N-(3-(6-amino-8-oxo-7-(4-phenoxyphenyl)-7H-purin-9(8H)-yl)phenyl)-4-(methylamino)but-2-enamide], for which the figures for the half-inhibitory concentration (IC50) against EGFR, against LCK and against BTK were less than 100 nM, 100 to 1000 nM and less than 100 nM, respectively.
In the case of `CN(C(=O)/C=C/c1ccccn1)c1cccc(-n2c(=O)n(-c3ccc(Oc4ccccc4)cc3)c3c(N)ncnc32)c1` [Compound 247, (E)-N-(3-(6-amino-8-oxo-7-(4-phenoxyphenyl)-7H-purin-9(8H)-yl)phenyl)-N-methyl-3-(pyridin-2-yl)acrylamide], the IC50 was in the range of 1000 to 10000 nM at EGFR, 1000 to 10000 nM against LCK and 100 to 1000 nM at BTK.
Turning to `COc1ccc(-n2c(=O)n(-c3ccc(Oc4cccc(F)c4)cc3)c3c(N)ncnc32)cc1N(C)C(=O)/C=C/CN(C)C1CC1` [Compound 312, (E)-N-(5-(6-amino-7-(4-(3-fluorophenoxy)phenyl)-8-oxo-7H-purin-9(8H)-yl)-2-methoxyphenyl)-4-(cyclopropyl(methyl)amino)-N-methylbut-2-enamide], the IC50 against EGFR is greater than 10000 nM; against LCK it was greater than 10000 nM; against BTK it was less than 100 nM.
For `CN(C/C=C/C(=O)Nc1cccc(-n2c(=O)n(-c3ccc(Oc4ccccc4)cc3)c3c(N)ncnc32)c1)C1CC1` [Compound 9, (E)-N-(3-(6-amino-8-oxo-7-(4-phenoxyphenyl)-7H-purin-9(8H)-yl)phenyl)-4-(cyclopropyl(methyl)amino)but-2-enamide], the results for the IC50 against EGFR, at LCK and against BTK were less than 100 nM, 100 to 1000 nM and less than 100 nM, respectively.
In the case of `CN(C)C/C=C/C(=O)N1CCC(Cn2c(=O)n(-c3ccc(Oc4ccccc4)cc3)c3c(N)ncnc32)CC1` [Compound 75, (E)-6-amino-9-((1-(4-(dimethylamino)but-2-enoyl)piperidin-4-yl)methyl)-7-(4-phenoxyphenyl)-7H-purin-8(9H)-one], the IC50 against EGFR was 1000 to 10000 nM; against LCK, 100 to 1000 nM; against BTK it was less than 100 nM.
`CN(C(=O)/C=C/CN(C)C1CC1)c1ccc(-n2c(=O)n(-c3ccc(Cl)cc3)c3c(N)ncnc32)cc1` [Compound 49, (E)-N-(4-(6-amino-7-(4-chlorophenyl)-8-oxo-7H-purin-9(8H)-yl)phenyl)-4-(cyclopropyl(methyl)amino)-N-methylbut-2-enamide]: the IC50 against EGFR is greater than 10000 nM; against LCK, 1000 to 10000 nM; at BTK, 100 to 1000 nM.
Regarding `CN(C(=O)/C=C/c1cn(C)cn1)c1cccc(-n2c(=O)n(-c3ccc(Oc4ccccc4)cc3)c3c(N)ncnc32)c1` [Compound 327, (E)-N-(3-(6-amino-8-oxo-7-(4-phenoxyphenyl)-7H-purin-9(8H)-yl)phenyl)-N-methyl-3-(1-methyl-1H-imidazol-4-yl)acrylamide], the results for the IC50 on EGFR, against LCK and against BTK were 1000 to 10000 nM, 1000 to 10000 nM and 100 to 1000 nM, respectively.
As for `COc1cc(N(C)C(=O)/C=C/CN(C)C2CC2)cc(-n2c(=O)n(-c3ccc(Oc4ccccc4)cc3)c3c(N)ncnc32)c1` [Compound 224, (E)-N-(3-(6-amino-8-oxo-7-(4-phenoxyphenyl)-7H-purin-9(8H)-yl)-5-methoxyphenyl)-4-(cyclopropyl(methyl)amino)-N-methylbut-2-enamide], the concentration for half-maximal inhibition (IC50) was 1000 to 10000 nM against EGFR, 1000 to 10000 nM on LCK and less than 100 nM against BTK.
